Columns and labels:
[1] = test system: human follicular dermal papilla cells (HFDPCs); test: MTT assay, stimulation of proliferation of human follicular dermal papilla cells; format: cell-based; conditions: sphinganine 0.3 μg/ml; creatine 10 μg/ml; caffeine 10 μg/ml; 0.1% (v/v) ethanol; incubation 24 hours
Description: The cells were sown in a cell density of about 6300 cells/cm^2 in a T75 bottle with follicle dermal papilla cell growth medium (for short: growth medium) and then incubated at 37° C., 5% CO2. After 1 day, media exchange was carried out. After a further 3 days, the medium was removed, the cells were washed with PBS (phosphate buffered saline) (without Mg^2+ and Ca^2+), detached by accutase treatment; the cell count is determined and then the cells are sown in a concentration of about 5500 cells/cm^2 in new T75 bottles in growth medium and further cultivated under identical conditions as described above. After 1 and 3 days, media exchange was carried out. After 1 further day, the medium was removed, the cells were washed in PBS (without Mg^2+ and Ca^2+), detached by accutase treatment and then sown in a concentration of about 10 000 cells/cm^2 into the cavities of 6-well cell culture plates with 2.5 ml of growth medium in each case. After 1 day, media exchange was carried out, and the test substances—diluted in fresh medium—were applied. […] All cultivations were carried out in the presence of 0.1% (v/v) ethanol and a corresponding vehicle control was performed at the same time. After incubation for 24 hours, an MTT assay was carried out. The activity in the MTT test indicates the activity of the mitochondrial dehydrogenase and is a marker for the cell vitality and the proliferation capacity. Firstly, a 10 mg/ml stock solution of the MTT reagent (Thiazolyl Blue Tetrazolium Bromide, Sigma Aldrich M5655) in PBS was prepared. The stock solution was then diluted with growth medium to an end concentration of 1 mg/ml MTT reagent. The cells were washed with PBS (without Mg^2+ and Ca^2+) and incubated with 1 ml of growth medium with MTT reagent for 3 h at 37° C. […] The absorption of the extracts was determined by spectrophotometry at a wavelength of 550 nm. The optical density of the extracts from the cells treated only with the vehicle is regarded as the reference (100%), all of the other measured values are quantified relative to the reference sample.

ex vivo hair follicles = ex vivo hair follicles kept in culture; EP0790053; cited from earlier work
[2] = test system: in vitro cultivated keratinocytes; conditions: EP0790053; cited from earlier work

| SMILES | cell proliferation (MTT, optical density at 550 nm relative to vehicle control = 100%) [1] | lifespan of the hair follicles (ex vivo hair follicles) | effect on growth of keratinocytes [2] |
| --- | --- | --- | --- |
| Cn1c(=O)c2c(ncn2C)n(C)c1=O [caffeine] | 102.5% |  |  |
| CN(CC(=O)O)C(=N)N [creatine] | 104.0% |  |  |
| CCCCCCCCCCCCCCC[C@@H](O)[C@@H](N)CO [sphinganine] | 103.9% | increases the lifespan of the hair follicles | growth-promoting effect |

Reference: patent publication US9913789B2, “Formulations containing sphinganine” (Evonik Degussa GmbH, priority 2013, dated 2018)
